assay: hygroscopicity of the salt forms; format: physicochemical; details: solid salt; considered to be non-hygroscopic

| Compound | hygroscopicity |
| --- | --- |
| [R—(R*,R*)]-2-(4-Fluorophenyl)-β,δ-dihydroxy-5-(1-methylethyl)-3-phenyl-4-[(phenylamino)carbonyl]-1H-pyrrole-1-heptanoic acid,N-(phenylmethyl)benzenemethanamine [dibenzylamine] | non-hygroscopic |
| CC(C)c1c(C(=O)Nc2ccccc2)c(-c2ccccc2)c(-c2ccc(F)cc2)n1CC[C@@H](O)C[C@@H](O)CC(=O)O.c1ccc(CCNCc2ccccc2)cc1 (relative stereo) [benethamine, [R—(R*,R*)]-2-(4-Fluorophenyl)-β,δ-dihydroxy-5-(1-methylethyl)-3-phenyl-4-[(phenylamino)carbonyl]-1H-pyrrole-1-heptanoic acid, N-benzyl-2-phenylethylamine] | non-hygroscopic |
| [R—(R*,R*)]-2-(4-Fluorophenyl)-β,δ-dihydroxy-5-(1-methylethyl)-3-phenyl-4-[(phenylamino)carbonyl]-1H-pyrrole-1-heptanoic acid, tertiary-butylamine [erbumine] | non-hygroscopic |
| CC(C)c1c(C(=O)Nc2ccccc2)c(-c2ccccc2)c(-c2ccc(F)cc2)n1CC[C@@H](O)C[C@@H](O)CC(=O)O.c1ccc(CNCCNCc2ccccc2)cc1 (relative stereo) [benzathine, [R—(R*,R*)]-2-(4-Fluorophenyl)-β,δ-dihydroxy-5-(1-methylethyl)-3-phenyl-4-[(phenylamino)carbonyl]-1H-pyrrole-1-heptanoic acid,N,N^1-bis(phenylmethyl)-1,2-ethanediamine] | non-hygroscopic |
| [R—(R*,R*)]-2-(4-Fluorophenyl)-β,δ-dihydroxy-5-(1-methylethyl)-3-phenyl-4-[(phenylamino)carbonyl]-1H-pyrrole-1-heptanoic acid,N-ethylethanamine [diethylamine] | non-hygroscopic |
| [R—(R*,R*)]-2-(4-Fluorophenyl)-β,δ-dihydroxy-5-(1-methylethyl)-3-phenyl-4-[(phenylamino)carbonyl]-1H-pyrrole-1-heptanoic acid, tetrahydro-2H-1,4-oxazine [morpholine] | non-hygroscopic |

Source: patent publication US9908850B2, “Salt forms of [R—(R*,R*)]-2-(4-fluorophenyl)-β,δ-dihydroxy-5-(1-methylethyl)3-phenyl-4-[(phenylamino)carbonyl]-1H-pyrrole-1-hepatonic acid” (Pfizer Inc., priority 2004, dated 2018)
